# Tests used:
# [1] = test system: mutant SOD1 aggregates in NSC34 cells; assay: High molecular weight, detergent insoluble SOD1 aggregates in NSC34 cells by Western blot; assay type: cell-based, human; conditions: shXBP-1 and shIRE-1 alpha NSC34 cells expressing SOD1^G85R; 16 h with 10 mM 3-MA or 10 μM wortmannin
# Text: Stable motoneuron cell lines with reduced levels of XBP-1, IRE1α, Beclin-1 and EDEM were generated using methods previously described (Hetz et al., 2007) by targeting the respective mRNA with shRNA using the lentiviral expression vector pLKO.1 and puromycin selection. As control empty vector or a shRNA against the luciferase gene were employed. Constructs were generated by The Broad Institute (Boston, USA) based on different criteria for shRNA design (see broad.mit.edu/genome_bio/trc/rnai.html). A total of five different constructs for each gene were screened and the most efficient one was selected for further studies. Targeting sequences identified for the mouse XBP-1, IRE1α, Beclin-1 and EDEM mRNA are 5′-[…]-3′,5′-[…]-3′,5′-[…]-3′,5′-[…]-3′,5′-[…]-3′,5′-[…]-3′, 5′-[…]-3′ and 5′-[…]-3′, respectively. […]
# Assays using the transient expression of human SOD1^WT and the mutants SOD1^G93A and SOD1^G85R as EGFP fusion proteins were developed. These constructs were employed to visualize and quantify the formation of intracellular SOD1 inclusions in living cells by fluorescent confocal microscopy. […] SOD1 oligomers were visualized in total cell extracts prepared in RIPA buffer and sonication, and then analyzed by Western blot. […]
# [2] = test system: autophagosomes in NSC34 cells; assay: Autophagosome number (LC3-EGFP dots, electron microscopy) in NSC34 cells; assay type: cell-based; conditions: shXBP-1 cells, 16 h with 10 mM 3-MA
# Description: Lysosomes or acidic compartments were visualized with two different assays. Living cells were stained with 200 nM lysotraker or 600 nM Acridine orange for 45 min at 37 C and 5% CO2. Cells were washed three times with cold PBS and then fixed for 30 min with 4% formaldehyde on ice, then maintained in PBS containing 0.4% formaldehyde for visualization on a confocal microscope. Autophagosomes were visualized after the expression of LC3-EGFP (Kabeya et al., 2000. EMBO J. 19, 5720-5728) or LC3-dsRED after the transient transfection of low amount of DNA (⅓ amount of recommended concentrations by transfection kit). As control experiments, cells were treated with 10 mM 3-MA autophagy inhibitor. All quantifications were performed at least in a total of 150 cells performed in duplicate for each independent experiment.
# Autophagosomes were also visualized by transmission electron microscopy. Cells were fixed with 1.25% formaldehyde, 2.5% glutaraldehyde, 0.03% picric acid in 100 mM sodium cacodylate buffer. After washing with 100 mM sodium cacodylate buffer, tissues were treated for 1 h with 1% osmium tetroxide and 1.5% potassium ferrocyanide, and then 30 min with 0.5% uranyl acetate in 50 mM maleate buffer, pH 5.15. After dehydration in ethanol, cells were treated for 1 h in propylenoxide and then embedded in Epon/Araldite resin. […]
smiles,measurement,setting,value
"Cn1cnc(N)c2ncnc1-2 [3-MA, 3-methyladenine]",SOD1 aggregation after PI3-kinase / autophagy inhibitor,[1],recovery of mutant SOD1 aggregation in knockdown cells
same,number of cells containing more than four autophagosomes per cell after 3-MA,[2],decreased

# — US20110142799A1, “MODULATION OF NEURODEGENERATIVE DISEASE BY MODULATING XBP-1 ACTIVITY” (PRESIDENT AND FELLOWS OF HARVARD COLLEGE, priority 2008, published 2011)
